In PMC5960634 (Biochemical pharmacology, 2018):
Where a name gives a salt, the structure may show the parent alone.

Key:
[1] = target: T1, recombinant full length human estrogen receptor alpha (ERα) (Homo sapiens, UniProt P03372); test: [3H]-ketamine saturation radioligand binding assay; conditions: read-out: KD of [3H]-ketamine binding to ERα (saturation binding); nine concentrations of [3H]-ketamine, 4 nM to 400 nM; non-linear regression
[2] = target: T1, recombinant full length human estrogen receptor alpha (ERα); test: [3H]-ketamine displacement assay; format: binding
[3] = brains of female than in male mice; cited from earlier work
[4] = target: T1, recombinant full length human estrogen receptor alpha (ERα); conditions: 1 nM [3H]-estradiol; competitor 4 nM - 40 mM

T1 sequence (P03372 whole entry): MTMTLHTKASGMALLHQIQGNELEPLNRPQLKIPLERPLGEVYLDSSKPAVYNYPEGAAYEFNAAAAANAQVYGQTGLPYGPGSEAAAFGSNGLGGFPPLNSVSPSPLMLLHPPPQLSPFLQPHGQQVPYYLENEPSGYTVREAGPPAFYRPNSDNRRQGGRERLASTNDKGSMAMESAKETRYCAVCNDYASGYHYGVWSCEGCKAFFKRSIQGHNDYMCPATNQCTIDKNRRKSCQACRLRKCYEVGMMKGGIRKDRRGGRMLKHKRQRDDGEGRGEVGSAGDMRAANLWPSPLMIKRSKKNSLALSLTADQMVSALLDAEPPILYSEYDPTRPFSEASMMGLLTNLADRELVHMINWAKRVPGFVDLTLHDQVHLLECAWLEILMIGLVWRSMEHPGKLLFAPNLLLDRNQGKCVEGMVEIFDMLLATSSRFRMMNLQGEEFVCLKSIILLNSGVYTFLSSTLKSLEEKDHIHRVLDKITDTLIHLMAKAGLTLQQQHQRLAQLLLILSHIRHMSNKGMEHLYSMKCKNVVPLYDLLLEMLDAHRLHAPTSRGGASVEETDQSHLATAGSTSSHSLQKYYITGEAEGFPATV

SMILES | IC50 [2] [nM] | also measured
CNC1(c2ccccc2Cl)CCCCC1=O (racemic) [[^3H]-ketamine, (±)-Ketamine [N-methyl-^3H] hydrochloride] |  | Kd [1]: 344 nM
N[C@@]1(c2ccccc2Cl)CCC[C@@H](O)C1=O [(2R,6R)-HNK] | 3400 ± 200 | 
N[C@]1(c2ccccc2Cl)CCC[C@H](O)C1=O [(2S,6S)-HNK] | 3530 ± 200 | 
N[C@@]1(c2ccccc2Cl)CCC[C@@H](O)C1=O [(2S,6S;2R,6R)-HNK, (2S,6S;2R,6R)-hydroxynorketamine] |  | brain concentrations, female versus male mice [3]: three fold higher
CNC1(c2ccccc2Cl)CCCCC1=O (stereo not drawn) [ketamine, Ketamine hydrochloride] | 2310 ± 100 | displacement of [3H]-estradiol binding to ERα (in words) [4]: failed to displace
